The results in this text go back to BindingDB's records for doi:10.7270/Q2VH5M8G (Nmmlsc, 2010).

Broadly, the EC50 is the concentration giving half of the maximal effect.

The first assay has as its target T1, Regulator of G-protein signaling 16 (Homo sapiens, UniProt O15492).
T1 sequence (O15492 whole entry): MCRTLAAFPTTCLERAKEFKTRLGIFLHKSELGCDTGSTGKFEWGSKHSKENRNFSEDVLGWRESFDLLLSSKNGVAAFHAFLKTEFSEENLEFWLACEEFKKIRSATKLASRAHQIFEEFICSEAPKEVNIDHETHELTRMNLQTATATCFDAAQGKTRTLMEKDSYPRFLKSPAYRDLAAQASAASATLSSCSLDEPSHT
Briefly: RGS16-Galphao binding modulators, SAR follow-up, biochemical, multiplexed bead flow cytometry, SAR compounds (AID 2298).
Conditions: not given
For orientation: In flow cytometry, cells or beads pass a laser one at a time.
Turning to `O=C(Cc1csc(N2CCOCC2)n1)NN=Cc1ccc(O)c(O)c1O` [SMR000369439], the half-maximal effective concentration (EC50) was found to be 822 nM. Compound `Cc1[nH]n(-c2ccccc2)c(=S)c1C=NCCCN=Cc1c(C)[nH]n(-c2ccccc2)c1=S` yielded an EC50 of 405 nM.

`Cc1cccc(N2CCN(C(=O)CN3CCc4nc(C)cc(C)c4C3=O)CC2C)c1` (configuration not stated) [KUC103675N] returned a half-maximal effective concentration (EC50) of more than 30000 nM.

`Cc1cccc(N2CCN(C(=O)Cn3ccc4nc(C)cc(C)c4c3=O)CC2C)c1` (configuration not stated) [2,4-dimethyl-6-[2-[3-methyl-4-(3-methylphenyl)piperazin-1-yl]-2-oxidanylidene-ethyl]-1,6-naphthyridin-5-one] showed an EC50 of more than 30000 nM. Turning to `Cc1[nH]n(-c2ccccc2)c(=S)c1/C=N/c1cccc([N+](=O)[O-])c1` [(4E)-5-methyl-4-[(3-nitroanilino)methylene]-2-phenyl-2-pyrazoline-3-thione], the EC50 was determined as 46 nM. For `CCN=c1scc(C)n1N=Cc1ccc(O)c(O)c1O`, the EC50 came out at 1050 nM.

`Cc1cc(Cl)ccc1/N=c1/ssnc1Cl` [MLS000539990] displayed an EC50 of 53 nM. Same read-out and setting: to `CN=c1scc(C)n1N=Cc1ccc(O)c(O)c1O` [(4E)-2,3-dihydroxy-4-[[(4-methyl-2-methylimino-1,3-thiazol-3-yl)amino]methylidene]cyclohexa-2,5-dien-1-one] belongs 511 nM. The same measure, in the same setting: the value for `Nc1c(C(=O)NCC2CCCO2)sc2nc3c(c(-c4ccco4)c12)CC/C3=C/c1ccco1` (configuration not stated) [UNM-0000305796] was more than 30000 nM; that for `O=c1c2ccccc2sn1-c1ccc(S(=O)(=O)N2CCCC2)cc1` [2-(4-pyrrolidin-1-ylsulfonylphenyl)-1,2-benzothiazol-3-one] was 27 nM. In turn, `Cc1cc(C)c2c(=O)n(CC(=O)N3CCN(c4ccccc4)CC3)ccc2n1` [2,4-dimethyl-6-[2-oxidanylidene-2-(4-phenylpiperazin-1-yl)ethyl]-1,6-naphthyridin-5-one] yielded a concentration for a half-maximal effect (EC50) of 18 nM. The same measure, in the same setting: to `Cc1cccc(N2CCN(C(=O)Cn3sc4nc(C)cc(C)c4c3=O)CC2C)c1` (configuration not stated) [2-[2-keto-2-[3-methyl-4-(m-tolyl)piperazino]ethyl]-4,6-dimethyl-isothiazolo[5,4-b]pyridin-3-one] belongs 110 nM. In the case of `CCC(=O)NC(c1ccc(C)cc1)c1cc([N+](=O)[O-])c2cccnc2c1O` (configuration not stated) [MLS000553854], the EC50 amounted to 5220 nM.

`CN1CCN(C2=C(Cl)C(=O)C(c3cnc(N4CCCCC4)s3)=C(Cl)C2=O)CC1` had a 50% effective concentration (EC50) of 27 nM. The same measure, in the same setting: to `CC1(C)OC(=O)C(=Cc2ccc(-c3ccc(S(N)(=O)=O)cc3)o2)C(=O)O1` [SMR000273939] belongs 3510 nM; to `CC(=O)OCCCNc1cc(Sc2nc3ccccc3s2)c2nonc2c1[N+](=O)[O-]` [MLS000521052], 272 nM.

With `COc1ccc(C2=CC(=O)C=CC2=O)cc1` [MLS001029846], a half-maximal response (EC50) required 151 nM. Compared with the last compound, the EC50 is about 1.8-fold lower.

Consider `O=C(COc1ccccc1C(=O)NN=Cc1ccc(O)c(O)c1)NN=Cc1ccc(O)c(O)c1` [N''-[(Z)-(3-hydroxy-4-oxo-1-cyclohexa-2,5-dienylidene)methyl]-2-[2-[[(Z)-(3-hydroxy-4-oxo-1-cyclohexa-2,5-dienylidene)methyl]hydrazo]-2-oxoethoxy]benzohydrazide], for which the midpoint of the response, the EC50, lay at 116 nM. In turn, `NS(=O)(=O)c1ccc(N=NCc2ccc(O)c(O)c2O)c([N+](=O)[O-])c1` [4-[[(E)-(2,3-dihydroxy-4-oxo-1-cyclohexa-2,5-dienylidene)methyl]hydrazo]-3-nitrobenzenesulfonamide] gave a concentration for a half-maximal effect (EC50) of 29 nM. Same read-out and setting: to `O=C1C(Cl)=C(N2CCCCC2)C(=O)C(Cl)=C1c1cnc(N2CCCCC2)s1` [MLS000550549] belongs 121 nM; to `O=c1c2ccccc2sn1-c1ccccc1` [2-phenyl-1,2-benzothiazol-3-one], more than 30000 nM. Same read-out and setting: to `CCN(CC)S(=O)(=O)c1cccc(C(=O)NN=Cc2ccc(O)c(O)c2O)c1` belongs 590 nM; to `Cc1cc(C)c2c(n1)CCN(CC(=O)N1CCN(c3ccccc3)CC1)C2=O` [2,4-dimethyl-6-[2-oxidanylidene-2-(4-phenylpiperazin-1-yl)ethyl]-7,8-dihydro-1,6-naphthyridin-5-one], more than 30000 nM; to `Cc1cccc(N2CCN(C(=O)COc3nsc4nc(C)cc(C)c34)CC2C)c1` (configuration not stated), 1430 nM. On the same count and under the same terms, the value for `Cc1cccc(N2CCN(C(=O)COc3noc4nc(C)cc(C)c34)CC2C)c1` (configuration not stated) [2-[(4,6-dimethyl-[1,2]oxazolo[5,4-b]pyridin-3-yl)oxy]-1-[3-methyl-4-(3-methylphenyl)piperazin-1-yl]ethanone] was more than 30000 nM; that for `CCN(CC)S(=O)(=O)c1cccc(-c2n[nH]c(=S)n2N=Cc2ccc(C(=O)OC)cc2)c1` [4-[(E)-[3-[3-(diethylsulfamoyl)phenyl]-5-thioxo-1H-1,2,4-triazol-4-yl]iminomethyl]benzoic acid methyl ester] was 940 nM.

The same assay, now with this note: inactive by the depositor's call.
In turn, `CCOc1ccccc1-c1c2cc(O)c(=O)cc-2oc2cc(O)c(O)cc12` [MLS000578271] registered a 50% effective concentration (EC50) of 3680 nM.
